# Test results as given in patent US10702492B2, “PPARα activator, pharmaceutical composition, food and drink, food additive, supplement and method of manufacturing the same” (Marukome Co., Ltd., priority 2015, dated 2020).
# “Also recorded” adds a separate entry of the source.
# Assays:
# human PPARα = biological target: T1, human PPARα (Homo sapiens, UniProt Q07869); assay: PPARα luciferase assay; assay type: cell-based; conditions: CV-1 cells, 1.3 μM, 24 hours after the addition; FIG. 6 and FIG. 7
# T1 construct: expressed in transfected cells; host or cells: CV-1 cells
# T1 sequence (Q07869 239-466 limits assumed): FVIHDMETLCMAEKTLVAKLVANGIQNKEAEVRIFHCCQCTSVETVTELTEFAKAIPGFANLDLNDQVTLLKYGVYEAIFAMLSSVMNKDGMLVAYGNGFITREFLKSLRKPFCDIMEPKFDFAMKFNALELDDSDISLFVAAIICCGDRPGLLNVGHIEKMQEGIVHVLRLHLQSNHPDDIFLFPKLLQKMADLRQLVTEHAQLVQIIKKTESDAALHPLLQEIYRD
# Experimental: The PPARα activity of koji extract 1 was evaluated by PPARα luciferase assay. The assay was performed by a method as previously described (T. Goto et al., Biochemical and Biophysical Research Communications 337(2005) 440-445).
# Specifically, CV-1 cells that were transfected with p4×UASg-tk-luc (reporter plasmid), pM-hPPARα (expression vector for DNA-binding domain of GAL4 and ligand-binding domain of human PPARα for chimeric protein), pRL-CMV (internal control for normalizing transfection efficiency) and Lipofectamine™ Reagent. The cells were cultured in a DMEM culture medium containing 10% FBS and penicillin/streptomycin (10 mg/mL).
# The CV-1 cells were transfected with the vector with Lipofectamine and cultured for 24 hours. Then, the medium was replaced with a medium added with 0.1 mg/mL, 0.5 mg/mL or 5 mg/mL of the concentrated koji extract 1 with 70% ethanol (dilution rate: 50 times), respectively, and the CV-1 cells were further cultured for 24 hours. The measurement of luciferase activity was performed by using Dual-Luciferase(R) Reporter Assay System (Promega) and a luminometer (MicroLumat Plus, Berthold Japan Co., Ltd.) according to the protocols of the reagent and the luminometer.
# As a positive control, a medium added with […] of a known PPARα agonist, GW-7647 (2-[4-[2-[1-(4-cyclohexylbutyl)-3-cyclohexylureido]ethyl]phenylthio]isobutyric acid) was used. […]
# [1] = system: mouse primary-cultured hepatocytes; assay: TG accumulation in mouse primary-cultured hepatocytes (TG kit); assay type: cell-based; conditions: 24 hours, 500 μM oleic acid medium, vs. negative control (CT+), FIG. 8
# Experimental: The effect on the accumulation of triglyceride ([…]) of a koji extract was evaluated by using mouse primary-cultured hepatocytes and koji extract 1 used in Example 1.
# Primary-cultured hepatocytes were prepared from hepatocytes separated from C57BL/6J mice (6 week old, male), and were seeded in a 12-well plate (2×10^5 cells/ml). After confirming the attachment of the cells to the plate at 3-5 hours after the seeding, the medium was replaced with a serum-free medium (low-glucose DMEM, 1% P/S, 500 μM oleic acid, 20 μg/mL BSA). At this time, koji extract 1 was added in an amount of 0.1 mg/mL or 1 mg/mL. As a positive control, a medium added with GW-7647 ([…]) was used.
# At 24 hours after the addition, the amount of TG accumulation of the primary-cultured hepatocytes was measured with a TG kit (Wako). […] The error bar refers to SE (n=4), * is p<0.05, ** is p<0.01 (vs. control).
# The effect on triglyceride (TG) accumulation of 9-HODE:10E,12E was evaluated by using mouse primary-cultured hepatocytes.
# Primary-cultured hepatocytes were prepared from hepatocytes separated from C57BL/6J mice (6 week old, male), and seeded in a 12-well plate (2×10^5 cells/ml). […]
# At 24 hours after the addition, the accumulation amount of TG was measured by using a TG kit (Wako). […]
structure (smiles),measurement,setting,value
"CCCCC/C=C/C=C/C(O)CCCCCCCC(=O)O (stereo not drawn) [9-HODE:10E,12E, 9-hydroxy-10,12-octadecadienoic acid]",PPARα activity,human PPARα,remarkably high; also recorded: relatively high
same,accumulation amount of TG,[1]; 3 μM,significant decrease
same,accumulation amount of TG,[1]; 10 μM,significant decrease
